Data reported in ChEMBL document CHEMBL1121467, “Prostaglandins and congeners. 25. Inhibition of gastric acid secretion. Replacement of the carboxylate moiety of a prostaglandin with a hydroxymethylketo functional group” (1980).

Key:
[1] = tested on: Canis familiaris; assay: Inhibition of gastric acid secretion (cumulative 75 min) in the dog fistula preparation was measured as acid output, after intragastric administration of 10 ug/kg; format: functional, Canis lupus familiaris, Stomach
[2] = tested on: Canis familiaris; assay: Inhibition of gastric acid secretion (cumulative 75 min) in the dog fistula preparation was measured as total volume, after intragastric administration of 10 ug/kg; format: functional, Canis lupus familiaris, Stomach

SMILES | Acid output [1] | Volume [2] [mL]
CCCCC(C)(O)C/C=C/C1[C@H](O)CC(=O)[C@@H]1CCCCCCC(=O)CO (some centres undefined) | 6.9 m equiv [H+] l-1 | 59
CCCCC(C)(O)C/C=C/C1[C@H](O)CC(=O)[C@@H]1C/C=C/CCCC(=O)CO (some centres undefined) | 7.5 m equiv [H+] l-1 | 76
